# Reference: patent US20240390360A1, “Therapeutic Combinations Of Orally Administered Paclitaxel, A P-gp Inhibitor, And A Checkpoint Inhibitor For The Treatment Of Solid Tumors” (Athenex, Inc., priority 2021, published 2024)
# Legend:
# [1] = tested on: subjects with advanced solid tumours; assay type: in vivo
# [2] = tested on: non-small cell lung cancer; test: Best responses of the NSCLC subjects to prior anti-PD-1/anti-PD-L1 therapy; assay type: in vivo, human; details: prior therapy before this study (five pembrolizumab, three nivolumab, two atezolizumab), all discontinued due to progressive disease
molecule,measurement,setting,value
COc1cc2c(cc1OC)CN(CCc1ccc(-n3nnc(-c4cc(OC)c(OC)cc4NC(=O)c4cc(=O)c5ccccc5o4)n3)cc1)CC2 [Compound A],recommended Phase 2 dose (RP2D),"[1]; QD Days 1-3 (Days 1-3, 8-10) for 2 weeks of a 3-week cycle, in combination with pembrolizumab",15 mg
atezolizumab: prior immunotherapy (anti-PD-L1) of NSCLC subjects,"best response to the prior immunotherapy: SD, number of subjects",[2],1
same,"best response to the prior immunotherapy: response (non-RECIST), number of subjects",[2],1
"pembrolizumab: checkpoint inhibitor, administered intravenously","fatal pneumonitis, number","[1]; cohort six during cycle 8, attributed to pembrolizumab",One
